The values below come from patent US12668584B2, “Heterocyclic compounds as kinase inhibitors for therapeutic uses” (National Health Research Institutes, priority 2019, dated 2026).

For assay [1], the target named is T1, fms-like tyrosine kinase 3 (FLT3) (Homo sapiens, UniProt P36888).
T1 sequence (P36888 27-993): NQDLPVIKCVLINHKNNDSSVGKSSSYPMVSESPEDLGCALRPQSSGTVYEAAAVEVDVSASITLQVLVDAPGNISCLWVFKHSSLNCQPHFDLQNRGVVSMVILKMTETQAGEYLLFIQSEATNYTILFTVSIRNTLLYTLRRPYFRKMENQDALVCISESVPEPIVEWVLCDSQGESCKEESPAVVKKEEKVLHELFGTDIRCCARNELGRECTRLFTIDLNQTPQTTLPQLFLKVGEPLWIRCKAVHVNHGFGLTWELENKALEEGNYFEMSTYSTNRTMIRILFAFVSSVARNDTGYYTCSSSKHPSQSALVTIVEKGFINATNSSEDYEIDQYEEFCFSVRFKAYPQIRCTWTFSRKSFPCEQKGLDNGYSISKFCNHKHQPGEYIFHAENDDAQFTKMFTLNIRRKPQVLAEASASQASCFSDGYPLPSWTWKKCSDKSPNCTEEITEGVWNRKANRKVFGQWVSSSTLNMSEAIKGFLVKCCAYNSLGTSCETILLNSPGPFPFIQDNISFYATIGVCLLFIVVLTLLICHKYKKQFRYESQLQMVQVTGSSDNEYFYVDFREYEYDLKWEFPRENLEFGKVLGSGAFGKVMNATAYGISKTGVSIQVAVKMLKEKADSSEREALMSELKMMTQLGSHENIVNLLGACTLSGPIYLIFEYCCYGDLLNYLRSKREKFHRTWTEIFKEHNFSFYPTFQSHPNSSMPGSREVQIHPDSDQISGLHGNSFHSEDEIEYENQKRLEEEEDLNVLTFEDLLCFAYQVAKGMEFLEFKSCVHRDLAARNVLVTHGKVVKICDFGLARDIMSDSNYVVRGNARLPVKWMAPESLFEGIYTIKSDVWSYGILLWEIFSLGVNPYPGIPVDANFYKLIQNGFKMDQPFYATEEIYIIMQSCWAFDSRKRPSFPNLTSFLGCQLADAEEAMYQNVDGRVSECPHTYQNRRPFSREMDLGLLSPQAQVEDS
The assay can be described thus: HotSpot kinase profiling, FLT3. In kind it is biochemical. As to conditions: HotSpot assay, 10 μM ATP; IC50 of kinase divided by that of CSF1R. As for the experimental part:
A study was conducted to determine kinase selectivity of compounds 27 and 67. More specifically, each compound was tested for inhibitory activity of CSF1R kinase, as compared to that of seven other kinases, i.e., Aurora A, Aurora B, tyrosine-protein kinase Kit (c-Kit), fms-like tyrosine kinase 3 (FLT3), platelet-derived growth factor receptor (PDGFR) A, PDGFR B, and discoidin domain receptor tyrosine kinase 1 (DDR1).
In vitro profiling of the kinase panel was performed at Reaction Biology Corporation (www.reactionbiology.com, Malvern, PA) using the “HotSpot” assay platform. Briefly, specific kinase/substrate pairs along with required cofactors were prepared in a reaction buffer containing 20 mM Hepes pH 7.5, 10 mM MgCl2, 1 mM EGTA, 0.02% Brij35, 0.02 mg/ml BSA, 0.1 mM NA3VO4, 2 mM DTT, and 1% DMSO. Compound 27 or 67 was added. 20 minutes later, a mixture of ATP (Sigma, St. Louis MO) and ^33P ATP (Perkin Elmer, Waltham MA) was added to the resulting reaction solution to give a final concentration of 10 μM. The reaction was carried out at room temperature for 120 min., followed by spotting the reaction solution onto P81 ion exchange filter paper (Whatman Inc., Piscataway, NJ). Unbound phosphate was removed by extensive washing filters in 0.75% phosphoric acid. […] Selectivity, expressed as an IC50 ratio, was determined by dividing the IC50 value of a kinase, e.g., Aurora A, by that of CSF1R.

Assay [2] has as its target T2, CSF1R kinase (recombinant N-terminal GST-CSF1R, residues L534-C972) (Homo sapiens, UniProt P07333).
T2 construct: Recombinant N-terminal GST-CSF1R (CSF1R residues L534-C972) containing the CSFIR kinase domain; made in house; host or cells: Sf9 insect cells
T2 sequence (P07333 534-972): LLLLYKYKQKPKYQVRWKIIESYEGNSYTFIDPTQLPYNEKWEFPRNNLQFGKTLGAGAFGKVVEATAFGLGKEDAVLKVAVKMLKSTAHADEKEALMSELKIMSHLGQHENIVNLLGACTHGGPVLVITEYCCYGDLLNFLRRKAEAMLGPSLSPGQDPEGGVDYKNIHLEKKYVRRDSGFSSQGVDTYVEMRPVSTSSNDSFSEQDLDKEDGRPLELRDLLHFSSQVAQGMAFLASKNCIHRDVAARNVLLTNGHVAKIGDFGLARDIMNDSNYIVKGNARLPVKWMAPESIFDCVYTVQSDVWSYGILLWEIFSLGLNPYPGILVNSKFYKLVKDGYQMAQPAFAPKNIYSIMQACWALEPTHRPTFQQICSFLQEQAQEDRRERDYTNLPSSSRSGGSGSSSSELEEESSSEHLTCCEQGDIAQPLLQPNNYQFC
The assay can be described thus: CSF1R Kinase-Glo assay. Type of assay: biochemical. As to conditions: 40 μM ATP, 30° C. 180 min, read-out: Enzymatic Assay CSF1R enzyme IC50. Summed up: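 Sf9-expressed, purified GST-CSF1R kinase domain (600 ng) was incubated with compound for 180 min at 30° C. with 40 μM ATP and 20 μM poly(Glu,Tyr) 4:1 at pH 7.4 (Mn2+/Mg2+). Remaining ATP was read by Kinase-Glo Plus luminescence. IC50 was fitted from percentage inhibition versus no-compound controls across a concentration range.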

For `CN(C)c1ccc2c(Oc3ccc(NC(=O)NCc4ccc(C(F)(F)F)nc4)cc3)ncnc2c1` [Compound 27, 1-(4-((7-(dimethylamino)quinazolin-4-yl)oxy)phenyl)-3-((6-(trifluoromethyl)pyridin-3-yl)methyl)urea], the “IC50 ratio FLT3 / CSF1R” value in assay [1] is reported as “+++ (+++: 1000 > IC50 ratio > 100)”. Moreover, the IC50 in assay [2] was under 20 nM.

As for `CN(C)c1ccc2c(Oc3ccc4c(ccn4C(=O)NCc4ccc(C(F)(F)F)nc4)c3)ncnc2c1` [Compound 67, 5-((7-(dimethylamino)quinazolin-4-yl)oxy)-N-((6-(trifluoromethyl)pyridin-3-yl)methyl)-1H-indole-1-carboxamide], the “IC50 ratio FLT3 / CSF1R” value in assay [1] is given as “+++ (+++: 1000 > IC50 ratio > 100)”. In addition, the IC50 in assay [2] was in the range of 20 to 100 nM.
